What is called Km is the concentration of substrate that gives half-maximal velocity.

The target in this test is T1, Tam41 (Saccharomyces cerevisiae, UniProt P53230).
T1 sequence (P53230 27-385): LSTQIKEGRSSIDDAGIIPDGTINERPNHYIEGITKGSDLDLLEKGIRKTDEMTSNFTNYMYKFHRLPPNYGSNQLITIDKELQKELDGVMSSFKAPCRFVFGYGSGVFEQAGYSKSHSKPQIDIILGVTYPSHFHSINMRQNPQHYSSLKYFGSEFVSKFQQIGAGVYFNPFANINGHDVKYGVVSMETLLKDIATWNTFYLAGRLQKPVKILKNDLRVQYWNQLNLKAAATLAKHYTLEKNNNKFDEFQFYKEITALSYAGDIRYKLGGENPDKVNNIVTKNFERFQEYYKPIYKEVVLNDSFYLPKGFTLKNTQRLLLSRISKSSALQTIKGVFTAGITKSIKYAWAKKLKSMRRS
The test is described as follows: CDP-DAG formation, TLC with fluorescence imaging. It counts as biochemical. The following applies: 2 mM CTP; 2 mM MgCl2; Tris-HCl pH 7.5; 0.2% Triton X-100; 30 °C; 10 min; labelled compound.

Turning to NBD-PA, the Km amounted to 67 ± 10 µM.
